Experimental data: patent US20090191144A1, “USE OF LIPID COMPONENTS AGAINST POLLEN ALLERGIES” (BEIERSDORF AG, priority 2008, published 2009)

Assay: Viscosity of preferred lipids
Assay type: physicochemical

Row | Viskosity (in mPas) (s^−1 = 500) [mPas] | Molecule
1 | 100 | CCCCCCCCCCCCCCCCCC(=O)OCCCC [Crodamol BS, Butyl Stearate]
2 | 113 | CC(C)CCCCCCCCCCCCCCCOC(=O)CC(O)C(=O)OCCCCCCCCCCCCCCCC(C)C (centres unmarked) [DUB MDIS, Diisostearyl Malate]
3 | 220 | CC(C)CCCC(C)CCCC(C)CCCCC(C)CCCC(C)CCCC(C)C (centres unmarked) [Motif, Squalan]
4 | 116 | CCCCC(CC)C(=O)OCC(COC(=O)C(CC)CCCC)(COC(=O)C(CC)CCCC)COC(=O)C(CC)CCCC (centres unmarked) [Trivent PE 48, Pentaerythrityl Tetraethylhexanoate]
5 | 65 | Hydroxystearate Glycerol Triacetyle
6 | 110 | PEG-2 Diethylhexanoate [Dermol 488]
7 | 390 | Pentaerythrityl Tetraisostearate [Crodamol PTIS 3797]
8 | 57 | Pentaerythrityl Tetraisostearate [DUB PTIS]
9 | 116 | Tridecyl Trimellitate [DUB TMTD]
10 | 111 | Triisodecyl Trimelliate [DUB TMI]
11 | 67 | Triisononanoin [Isodragol]
12 | 99 | Triisostearin [Prisorine 2041 GTIS]

Row | Molecule | Viskosity (in mPas) (s^−1 = 500) [mPas]
13 | CCCCCCCCCCC(CO)CCCCCCCC (centres unmarked) [Eutanol G, Octyldodecanol] | 47.7
14 | CCCCOCCOP(=O)(OCCOCCCC)OCCOCCCC [Hostaphat B 310, Tributoxyethylphosphate] | 122
